Assay results as given in ChEMBL document CHEMBL1143680, “Alboatisins A-C, ent-atisene diterpenoids from Isodon albopilosus” (J Nat Prod, 2007).

Experiments:
Assay type in all cases: functional, cell-based
A549 = test: Cytotoxicity against human A549 cells after 72 hrs by SRB assay; details: A549, 72 h
HT-29 = test: Cytotoxicity against human HT29 cells after 72 hrs by SRB assay; details: HT-29, 72 h
K562 = test: Cytotoxicity against human K562 cells after 72 hrs by SRB assay; details: K562, 72 h

Compound	IC50 (A549) [µM]	IC50 (HT-29) [µM]	IC50 (K562) [µM]
C=C1C(=O)[C@@]23[C@H](O)C[C@H]4[C@@](C)(CCC[C@]4(C)C=O)[C@@H]2C[C@@H]1[C@H](O)[C@H]3O [ALBOATISINS B]	8.3	7.9	13.6
C=C1C(=O)[C@]23C[C@@H](O)[C@H]1C[C@H]2[C@]1(C)CCC[C@](C)(CO)[C@H]1C[C@H]3O [ALBOATISIN C]	12.5	20.6	28
C=C1C(=O)[C@@]23[C@H](O)C[C@@H]4[C@@](C)(CO)CCC[C@@]4(C)[C@@H]2C[C@@H]1[C@H](O)[C@H]3O [ALBOATISINS A]	10.5	15.6	24.6
